Results from patent US10383848B2, “Indole-based therapeutics” (Creighton University, priority 2016, dated 2019).
In brackets after ≈: the same amount, converted by molar mass. Like-named read-outs stand apart in the source and are kept apart here.

Columns and labels:
M. abscessus ATCC 19977 = experiment: MIC, resazurin microtiter assay; type: cell-based; conditions: Mycobacteroides abscessus, ATCC19977; Mueller Hinton II; read-out: MIC M. abscessus ATCC 19977
M. abscessus DCI #21 = experiment: MIC, resazurin microtiter assay; type: cell-based
[1] = tested on: M. massiliense CIP 108297; experiment: MIC, resazurin microtiter assay; type: cell-based; conditions: Mycobacteroides abscessus, CIP108297, Mueller Hinton II; read-out: MIC M. massiliense CIP 108297
M. massiliense CRM 0019 = experiment: MIC, resazurin microtiter assay; type: cell-based
M. bolletii ATCC 14472 = experiment: MIC, resazurin microtiter assay; type: cell-based
M. chelonae ATCC 35752 = experiment: MIC, resazurin microtiter assay; type: cell-based
[2] = tested on: M. tuberculosis H37Rv mc^26206; experiment: microbe, parasite or virus in culture; type: cell-based; conditions: TD50 in THP-1 cells
M. smegmatis mc^2155 = experiment: MIC, resazurin microtiter assay; type: cell-based; conditions: Mycolicibacterium smegmatis, MC^2155, 7H9-ADC-0.05% Tween 80; read-out: MIC M. smeg. mc^2155
M. avium 104 = experiment: MIC, resazurin microtiter assay; type: cell-based; conditions: Mycobacterium avium, 104; Mueller Hinton II; read-out: MIC M. avium 104
M. intracellulare 1956 = experiment: MIC, resazurin microtiter assay; type: cell-based; conditions: Mueller Hinton II; read-out: MIC M. avium Intracellulare 1956
M. xenopi WT = experiment: MIC, resazurin microtiter assay; type: cell-based; conditions: Mycobacterium xenopi, Mueller Hinton II; read-out: MIC M. xenopi WT
P. aeruginosa PAO-1 = experiment: MIC, resazurin microtiter assay; type: cell-based, Pseudomonas aeruginosa; conditions: Mueller Hinton II
S. aureus ATCC25923 = experiment: MIC, resazurin microtiter assay; type: cell-based; conditions: Staphylococcus aureus, ATCC25923; Mueller Hinton II; read-out: MIC S. aureus ATCC25923
THP-1 cells = experiment: Cytotoxicity assay, THP-1 cell viability (CellTiter-Glo); type: cell-based, human; conditions: 3 days
Method: The cytotoxicity of compounds was determined by measuring THP-1 cell viability after 3 days in the presence of test compounds. Compounds were prepared as 10-point serial dilutions in DMSO. The highest concentration of compound tested was 50 μM where compounds were soluble in DMSO at 10 mM. THP-1 cells were cultured in complete RPMI and differentiated into macrophage-like cells using 80 nM PMA overnight at 37° C., 5% CO2. Cells were inoculated into assay plates and cultured for 24 h before compound dilutions were added to a final DMSO concentration of 0.5%. Each run included staurosporine as a control. Assay plates were incubated for 3 days at 37° C., 5% CO2, growth was measured using the CellTiter-Glo® Luminescent Cell Viability Assay (Promega) which uses ATP as an indicator of cell viability. Relative luminescent units (RLU) were measured using a Biotek Synergy 4 plate reader. The dose response curve was fitted using the Levenberg-Marquardt algorithm.

M. abscessus 103 = experiment: MIC/MBC by microbroth dilution (MH or 7H9 broth); type: cell-based, M. abscessus subsp. bolletii; conditions: Mycobacteroides abscessus, 103
M. abscessus 1513 = experiment: MIC/MBC by microbroth dilution (MH or 7H9 broth); type: cell-based, M. abscessus subsp. abscessus; conditions: Mycobacteroides abscessus, 1513
[3] = tested on: M. massiliense strain 1513; experiment: Metabolic labeling and mycolic acid analysis; conditions: 4x and 10x MIC, 16 hr, [1,2-14C]acetate labeling, TLC
Method: Cultures of M. massiliense 1513 grown to mid log-phase in Mueller-Hinton II broth were incubated with different concentrations of inhibitors for 16 hr at 37° C. with shaking. 0.5 μCi/mL [1,2-^14C]acetic acid (specific activity, 52 Ci/mol, PerkinElmer Inc.) was added at the same time as the inhibitors. Total lipids and cell wall-bound mycolic acid methyl esters were prepared from treated and untreated cells and analyzed by TLC as described in Grzegorzewicz et al, Nature Chemical Biology, 2012, 8:334+341.

Cc1cc(C)c2cc(C(=O)N[C@@H]3C[C@@H]4C[C@H]([C@H]3C)C4(C)C)[nH]c2c1 [Compound 31, N-((1R,2R,3R,5S)-2,6,6-trimethylbicyclo[3.1.1]heptan-3-yl)-4,6-dimethyl-1H-indole-2-carboxamide]
MIC (M. abscessus ATCC 19977): 0.125 µg/mL (≈ 0.385 µM)
MIC (M. abscessus DCI #21; Mycobacteroides abscessus, Mueller Hinton II, read-out: MIC M. abscessus DCI #21): 0.125 µg/mL (≈ 0.385 µM)
Selectivity Index (TD50/MIC) M. abscessus DCI #21 (M. abscessus DCI #21; TD50 in THP-1 cells): >130
MIC [1]: 0.125 µg/mL (≈ 0.385 µM)
MIC (M. massiliense CRM 0019; Mycobacteroides abscessus, CRM0019, Mueller Hinton II, read-out: MIC M. massiliense CRM 0019): 0.125 µg/mL (≈ 0.385 µM)
Selectivity Index (TD50/MIC) M. Massiliense CRM0019 (M. massiliense CRM 0019; TD50 in THP-1 cells): >130
MIC (M. bolletii ATCC 14472; Mycobacteroides abscessus, ATCC14472, Mueller Hinton II, read-out: MIC M. bolletii ATCC 14472): 0.125 µg/mL (≈ 0.385 µM)
Selectivity Index (TD50/MIC) M. bolletii (M. bolletii ATCC 14472; TD50 in THP-1 cells): >130
MIC (M. chelonae ATCC 35752; Mycobacteroides chelonae, ATCC35752, Mueller Hinton II, read-out: MIC M. chelonae ATCC 35752): 0.125 µg/mL (≈ 0.385 µM)
Selectivity index (TD50/MIC) (M. chelonae ATCC 35752; TD50 in THP-1 cells): >130
Selectivity Index (TD50/MIC) M. tb H37Rv [2]: >830
MIC (M. smegmatis mc^2155): 1.25 to 2.5 µg/mL (≈ 3.85 to 7.7 µM)
MIC (M. avium 104): 2 µg/mL (≈ 6.16 µM)
MIC (M. intracellulare 1956): 2 µg/mL (≈ 6.16 µM)
MIC (M. xenopi WT): 0.25 to 1 µg/mL (≈ 0.77 to 3.08 µM)
MIC P. aeruginosa PAO-1 (P. aeruginosa PAO-1): inactive
MIC (P. aeruginosa PAO-1; Pseudomonas aeruginosa, PAO1, read-out: MIC P. aeruginosa PAO-1): > 160 µg/mL
MIC (S. aureus ATCC25923): > 160 µg/mL
TD50 (THP-1 cells): >16.2 µg/mL
MIC (M. abscessus 103; read-out: MIC M. abscessus 103, 7H9 Broth): > 64 µg/mL
MIC (M. abscessus 103; read-out: MIC M. abscessus 103, MH Broth): 16 µg/mL (≈ 49.3 µM)
MIC (M. abscessus 1513; read-out: MIC M. abscessus 1513, 7H9 Broth): > 64 µg/mL
MIC (M. abscessus 1513; read-out: MIC M. abscessus 1513, MH Broth): > 64 µg/mL
TMM build-up and mycolic acid transfer onto arabinogalactan and TDM [3]: concentration-dependent build-up of TMM
